Patent publication US11802107B2, “Compounds and methods of use” (Signum Biosciences, Inc., priority 2017, dated 2023)
Values after ≈ are worked out from the molar mass of the structure shown. Structures can show the parent of a compound that is named as a salt. Where two headings read alike, the source gives them in different places.

Assays:
P. acnes (ATCC 6919) [1] = assay: Minimal inhibitory concentration (MIC) against P. acnes; format: cell-based, Propionibacterium acnes; conditions: P. acnes ATCC 6919, 10^6 CFU/mL
Method: To determine minimal inhibitory concentration (MIC), reagents were dissolved in vehicle (5% v/v) and then added to bacteria suspension. P. acnes (ATCC® 6919TM) at 10^6 CFU/mL was incubated with test materials at the concentrations of two-fold serial dilution (0.25-500 μg/mL) and incubated for 72 hours (P. acnes).

Balb/C mice = assay: Oxazolone-induced delayed-type hypersensitivity (DTH) in vivo model; conditions: Mus musculus, topical to ears @ 3% w/v, 24 hours, read-out: Edema % inhibition
Method: Inbred male Balb/C mice were purchased from Hilltop Lab Animals (Scottdale, PA) and were used between 8 and 10 weeks of age. Mice backs were shaved and 100 μl of 3% v/v Oxazolone (Sigma Aldrich, Cat No. E0753) in acetone/olive oil (4:1) was applied to dorsal skin for sensitization. On Day 7, ears were challenged with 0.5% v/v Oxazolone and 30 minutes after challenge, test materials at 3% w/v were applied to ears (10 μl applied both to the dorsal and ventral surfaces of the mouse ear using a solvent pipette) and 24 hours later, skin thickness (edema) was measured. A 6-mm punch biopsy was obtained from each ear, snap frozen in liquid nitrogen. Ear skin biopsy punches were pulverized using FastPrep®-24 Biopulverizer (MP Biomedical, CatNo. 116004500) and Lysing Matrix A tubes (CatNo. 16910050). Protein extracts were obtained using 500 μL/tissue of cold T-PER buffer (ThermoFisher, CatNo. 78510) with Protease inhibitors (Sigma-Aldich, CatNo. 58820-20TAB). Soluble protein fractions were used to measure cytokine levels (IL-4) using ELISA kit (BD Biosciences® #555232). Results were represented as percent of inhibition relative to unsensitized and sensitized-only treated animals. Vehicle for presently disclosed compounds was 60:40 H2O:EtOH and 1:1 Acetone:EtOH for AN2718. (n=5-15 animals per treatment group).
Compound C was further analyzed at various dosages against 0.4 mg/ear of […] by the above protocol, data representing the average±S.E. of cumulative data from three independent experiments (n=12-15 mice per group) is shown below: […]

IL-8 = assay: P. acnes-induced IL-8 on human NHEKs; format: cell-based; conditions: NHEK, live P. acnes 10^7 CFU, 24 hours, ELISA, read-out: P. acnes-NHEK IL-8 Protein IC50
Method: Normal human epidermal keratinocytes (NHEKs) from neonatal donors were obtained from Thermo-Fisher (Cat No. C-001-5C). Cells were cultured in 96-well plates for 24 hours with EpiLife media (Cat No. MEPI500CA) supplemented with keratinocytes growth supplement (Cat No. S0015). On Day 2, media was removed and replaced with supplement-depleted medium for 24 hours. On Day 3, media was removed and cells were pre-treated with test materials ([…]) for 2 hours and later co-treated with test materials and live P. acnes (ATCC® 6919TM) at 10^7 CFU for 24 hours at 37° C. and 5% CO2. After incubation, cell media supernatants were harvested and used to measure pro-inflammatory cytokine levels (IL-8) using ELISA kits (BD Biosciences® #555244). Results were represented as percent of inhibition relative to untreated and P. acnes-only treated cells. IC50 values were determined by non-linear regression analysis using the four-parameter logistic equation.

P. acnes (ATCC 6919) [2] = assay: Minimal bactericidal concentration (MBC) against P. acnes; format: cell-based, Propionibacterium acnes; conditions: Cutibacterium acnes, ATCC6919; P. acnes 10^7 CFU/mL, in PBS, anaerobic conditions
[3] = Cutibacterium acnes, ATCC6919, 72 h, read-out: MIC

Row | SMILES | MIC (P. acnes (ATCC 6919) [1]; [3]) [µg/mL] | also measured
1 | CC(=O)NC(CC(N)=O)C(=O)NC(CSC/C=C(\C)CCCC(C)CCCC(C)CCCC(C)C)C(=O)O (centres unmarked) [P] | 10 (≈ 18 µM) | –
2 | C/C(=C\CSC(C)(C)C(Nc1ncc(C(=O)O)cn1)C(=O)O)CCCC(C)CCCC(C)CCCC(C)C (centres unmarked) [BP] | > 125 | –
3 | CC(=O)NC(COC(C)(C)C)C(=O)NC(CSC/C=C(\C)CCCC(C)CCCC(C)CCCC(C)C)C(=O)O (centres unmarked) [R] | > 25 | inhibition in vivo at 3 % strength (Balb/C mice): 24%
4 | C/C(=C\CSC[C@H](NC(=O)N1CCC1C(=O)O)C(=O)O)CCCC(C)CCCC(C)CCCC(C)C (some centres unmarked) [AZ] | 63 (≈ 120 µM) | –
5 | C/C(=C\CSCC(NC(=O)N1CCC(C(=O)O)CC1)C(=O)O)CCCC(C)CCCC(C)CCCC(C)C (centres unmarked) [Y] | 50 (≈ 90.1 µM) | inhibition in vivo at 3 % strength (Balb/C mice): 0%
6 | C/C(=C\CSC[C@H](NC(=O)Nc1ncc(C(=O)O)c(C(F)(F)F)n1)C(=O)O)CCCC(C)CCCC(C)CCCC(C)C (some centres unmarked) [BB] | 31 (≈ 49 µM) | –
7 | CC(=O)NC(C(=O)NC(CSC/C=C(\C)CCCC(C)CCCC(C)CCCC(C)C)C(=O)O)C(C)CO (centres unmarked) [K] | > 250 | –
8 | C/C(=C\CSCC(NC(=O)c1ccc(O)c(C(=O)O)c1)C(=O)O)CCCC(C)CCCC(C)CCCC(C)C (centres unmarked) [H] | 6 (≈ 10.6 µM) | inhibition in vivo at 3 % strength (Balb/C mice): 14%; IC50 (IL-8; Homo sapiens): 20 nM
9 | C/C(=C\CSCC(NC(=O)N1CCCCC1)C(=O)O)CCCC(C)CCCC(C)CCCC(C)C (centres unmarked) [BD] | > 125 | –
10 | C/C(=C\CSC(C)(C)C(NC(=O)CCC(=O)O)C(=O)O)CCCC(C)CCCC(C)CCCC(C)C (centres unmarked) [BO] | 125 (≈ 237 µM) | –
11 | C/C(=C/CSC[C@H](NC(=O)N(C)CC(=O)O)C(=O)O)CCCC(C)CCCC(C)CCCC(C)C (stereo partly drawn) [Compound BI, (2R)-2-{[(carboxymethyl)(methyl)carbamoyl]amino}-3-{[(2Z)-3,7,11,15-tetramethylhexadec-2-en-1-yl]sulfanyl}propanoic acid] | 12 (≈ 23.3 µM) | –
12 | CC(C)=CCC/C(C)=C/CC/C(C)=C/CSCC(NC(=O)N(CC(=O)O)CC(=O)O)C(=O)O (centres unmarked) [AF] | > 125 | –
13 | C/C(=C\CSCC(Nc1ccnc(N(C)CC(=O)O)n1)C(=O)O)CCCC(C)CCCC(C)CCCC(C)C (centres unmarked) [BM] | 6 (≈ 10.6 µM) | MBC (P. acnes (ATCC 6919) [2]): > 62 µg/mL
14 | C/C(=C\CSCC(NC(=O)N1CCCCC1C(=O)O)C(=O)O)CCCC(C)CCCC(C)CCCC(C)C (centres unmarked) [AW] | > 125 | –
15 | C/C(=C\CSCC(Nc1ncccn1)C(=O)O)CCCC(C)CCCC(C)CCCC(C)C (centres unmarked) [BF] | > 125 | –
16 | C/C(=C\CSCC(NC(=O)N1CC(O)CC1C(=O)O)C(=O)O)CCCC(C)CCCC(C)CCCC(C)C (centres unmarked) [BC] | 12 (≈ 21.6 µM) | –
17 | C/C(=C\CSCC(N/C(=N/C#N)N(C)CC(=O)O)C(=O)O)CCCC(C)CCCC(C)CCCC(C)C (centres unmarked) [W] | 62 (≈ 115 µM) | inhibition in vivo at 3 % strength (Balb/C mice): 22%
18 | C/C(=C\CSCC(NC(=O)N1CCCC(C(=O)O)C1)C(=O)O)CCCC(C)CCCC(C)CCCC(C)C (centres unmarked) [BE] | 23 (≈ 41.5 µM) | –
19 | CCC[C@@H]1C[C@@H](C(=O)N[C@@H]([C@H]2O[C@H](SC)[C@H](O)[C@@H](O)[C@H]2O)[C@H](C)Cl)N(C)C1 [Clindamycin HCl, reference compound] | 0.06 | –
20 | C/C(=C\CSCC(NC(=O)CCC(N)=O)C(=O)O)CCCC(C)CCCC(C)CCCC(C)C (centres unmarked) [F] | 6 (≈ 12 µM) | IC50 (IL-8; Homo sapiens): 1690 nM

Row | SMILES | MIC (P. acnes (ATCC 6919) [1]; [3]) [µg/mL] | also measured
21 | CSCCC(NC(C)=O)C(=O)NC(CSC/C=C(\C)CCCC(C)CCCC(C)CCCC(C)C)C(=O)O (centres unmarked) [L] | – | MIC (P. acnes (ATCC 6919) [1]; 72 hours): >16 µg/mL
22 | C/C(=C\CSCC(NC(=O)C(O)(CC(=O)O)CC(=O)O)C(=O)O)CCCC(C)CCCC(C)CCCC(C)C (centres unmarked) [U] | 19 (≈ 33.1 µM) | inhibition in vivo at 3 % strength (Balb/C mice): 18%
23 | O=C(O)CN(CC(=O)O)C(=O)NC12CC3CC(CC(C3)C1)C2 [AY] | > 125 | –
24 | CC(=O)NC(CC(C)C)C(=O)NC(CSC/C=C(\C)CCCC(C)CCCC(C)CCCC(C)C)C(=O)O (centres unmarked) [M] | 16 (≈ 28.8 µM) | –
25 | C/C(=C\CSC[C@H](NC(=O)N(CC#N)CC(N)=O)C(=O)O)CCCC(C)CCCC(C)CCCC(C)C (some centres unmarked) [BJ] | 23 (≈ 42.7 µM) | –
26 | C/C(=C\CSC[C@H](Nc1cnc(C(=O)O)cn1)C(=O)O)CCCC(C)CCCC(C)CCCC(C)C (some centres unmarked) [BK] | 31 (≈ 59.4 µM) | –
27 | C/C(=C\CSCC(Nc1nccc(N(C)CC(=O)O)n1)C(=O)O)CCCC(C)CCCC(C)CCCC(C)C (centres unmarked) [BN] | 8 (≈ 14.2 µM) | MBC (P. acnes (ATCC 6919) [2]): 31 µg/mL (≈ 54.9 µM)
28 | C/C(=C\CSc1ccc(C(=O)O)cn1)CCCC(C)CCCC(C)CCCC(C)C (centres unmarked) [BA] | > 125 | –
29 | C/C(=C\CSCC(NC(=O)c1ccc(C(=O)O)cc1)C(=O)O)CCCC(C)CCCC(C)CCCC(C)C (centres unmarked) [X] | > 25 | inhibition in vivo at 3 % strength (Balb/C mice): 15%
30 | CC(=O)N[C@@H](CC(=O)O)C(=O)NC(CSC/C=C(\C)CCCC(C)CCCC(C)CCCC(C)C)C(=O)O (some centres unmarked) [J] | 32 (≈ 57.5 µM) | inhibition in vivo at 3 % strength (Balb/C mice): 10%
31 | C[C@H]1c2cccc(O)c2C(=O)C2=C(O)[C@]3(O)C(=O)C(C(N)=O)=C(O)[C@@H](N(C)C)[C@@H]3[C@@H](O)[C@@H]21 [Doxycycline, reference compound] | < 0.2 | –
32 | C/C(=C\CSCC(Nc1nccc(C(=O)O)n1)C(=O)O)CCCC(C)CCCC(C)CCCC(C)C (centres unmarked) [BG] | 42 (≈ 80.5 µM) | –
33 | CC(C)=CCC/C(C)=C/CC/C(C)=C/CSCC(NC(=O)N1CCCC1C(=O)O)C(=O)O (centres unmarked) [AD] | > 125 | –
34 | C[C@H]1C[C@H]2[C@@H]3CCC4=CC(=O)C=C[C@]4(C)[C@@]3(F)[C@@H](O)C[C@]2(C)[C@@]1(O)C(=O)CCl [Clobetasol, reference compound] | – | IC50 (IL-8): 33 nM
35 | CSCC(NC(=O)N(CC(=O)O)CC(=O)O)C(=O)O (centres unmarked) [AX] | > 125 | –
36 | CC(C)=CCC/C(C)=C/CC/C(C)=C/CSCC(NC(=O)COCC(=O)O)C(=O)O (centres unmarked) [AQ] | > 125 | –
37 | CC(=O)NC(C(=O)NC(CSC/C=C(\C)CCCC(C)CCCC(C)CCCC(C)C)C(=O)O)C(C)O (centres unmarked) [N] | > 250 | –
38 | C/C(=C\CSCC(Nc1ncc(C(=O)O)cn1)C(=O)O)CCCC(C)CCCC(C)CCCC(C)C (centres unmarked) [BH] | 4 (≈ 7.67 µM) | MBC (P. acnes (ATCC 6919) [2]): 16 µg/mL (≈ 30.7 µM)
39 | CC(=O)NC(Cc1ccccc1)C(=O)NC(CSC/C=C(\C)CCCC(C)CCCC(C)CCCC(C)C)C(=O)O (centres unmarked) [O] | 32 (≈ 54.3 µM) | –
40 | C/C(=C\CSC[C@H](Nc1ncc(C(=O)O)c(C)n1)C(=O)O)CCCC(C)CCCC(C)CCCC(C)C (some centres unmarked) [BL] | 7 (≈ 13.1 µM) | MBC (P. acnes (ATCC 6919) [2]): > 62 µg/mL
